Assay results from publication PMC8482771 (ACS Omega, 2021).
Read-outs that look alike come from different tables or passages of the source.

Experiments:
Assay type in all cases: cell-based
Cytotoxicity assay = conditions: human, nontransfected 1321N1 astrocytoma cells
h-P2X7R [1] = biological target: T1, h-P2X7R (Homo sapiens, UniProt Q99572); test: Ca2+ influx assay; conditions: for inhibition at 50 µM: 1321-N1, read-out: h-P2X7 % inhibition
T1 sequence (Q99572 1-595): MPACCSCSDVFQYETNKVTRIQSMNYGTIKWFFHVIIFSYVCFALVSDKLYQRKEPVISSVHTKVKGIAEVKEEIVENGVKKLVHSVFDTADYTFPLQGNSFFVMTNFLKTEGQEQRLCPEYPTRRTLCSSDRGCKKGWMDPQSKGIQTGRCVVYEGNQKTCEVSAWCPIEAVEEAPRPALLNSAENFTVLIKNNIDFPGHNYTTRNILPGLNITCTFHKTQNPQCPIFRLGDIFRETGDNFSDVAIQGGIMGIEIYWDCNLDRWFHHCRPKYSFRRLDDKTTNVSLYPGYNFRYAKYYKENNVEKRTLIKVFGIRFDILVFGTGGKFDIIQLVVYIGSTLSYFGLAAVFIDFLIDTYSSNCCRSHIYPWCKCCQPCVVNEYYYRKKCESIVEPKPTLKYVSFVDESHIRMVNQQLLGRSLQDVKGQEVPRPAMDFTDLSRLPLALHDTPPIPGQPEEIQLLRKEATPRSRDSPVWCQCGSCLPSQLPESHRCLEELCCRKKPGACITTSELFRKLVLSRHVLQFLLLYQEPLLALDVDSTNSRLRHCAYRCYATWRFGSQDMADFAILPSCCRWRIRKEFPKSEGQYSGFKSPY

h-P2X2R [2] = biological target: T2, h-P2X2R (Homo sapiens, UniProt Q9UBL9); test: Ca2+ influx assay; conditions: for inhibition at 50 µM: 1321-N1, read-out: h-P2X2 % inhibition; for activity against h-P2X2 receptor (in words): SAR statement
T2 sequence (Q9UBL9 1-471): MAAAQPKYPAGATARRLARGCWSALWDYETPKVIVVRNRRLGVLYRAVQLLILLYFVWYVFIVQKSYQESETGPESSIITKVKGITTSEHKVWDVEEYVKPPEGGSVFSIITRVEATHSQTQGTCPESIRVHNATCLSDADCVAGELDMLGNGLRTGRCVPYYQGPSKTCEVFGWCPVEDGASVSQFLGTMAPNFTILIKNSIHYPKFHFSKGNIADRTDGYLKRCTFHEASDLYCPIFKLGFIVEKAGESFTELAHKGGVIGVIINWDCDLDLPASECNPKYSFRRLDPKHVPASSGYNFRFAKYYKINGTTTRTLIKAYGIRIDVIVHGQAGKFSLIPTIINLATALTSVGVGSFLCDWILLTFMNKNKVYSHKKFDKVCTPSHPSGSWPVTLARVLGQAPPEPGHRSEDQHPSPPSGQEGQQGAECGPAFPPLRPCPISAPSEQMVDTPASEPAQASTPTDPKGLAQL

h-P2X5 receptor = h-P2X5 receptor (Homo sapiens, UniProt Q93086); test: Ca2+ influx assay; conditions: for inhibition at 50 µM: 1321-N1, read-out: h-P2X5 % inhibition
Sequence of h-P2X5 receptor (Q93086 whole entry): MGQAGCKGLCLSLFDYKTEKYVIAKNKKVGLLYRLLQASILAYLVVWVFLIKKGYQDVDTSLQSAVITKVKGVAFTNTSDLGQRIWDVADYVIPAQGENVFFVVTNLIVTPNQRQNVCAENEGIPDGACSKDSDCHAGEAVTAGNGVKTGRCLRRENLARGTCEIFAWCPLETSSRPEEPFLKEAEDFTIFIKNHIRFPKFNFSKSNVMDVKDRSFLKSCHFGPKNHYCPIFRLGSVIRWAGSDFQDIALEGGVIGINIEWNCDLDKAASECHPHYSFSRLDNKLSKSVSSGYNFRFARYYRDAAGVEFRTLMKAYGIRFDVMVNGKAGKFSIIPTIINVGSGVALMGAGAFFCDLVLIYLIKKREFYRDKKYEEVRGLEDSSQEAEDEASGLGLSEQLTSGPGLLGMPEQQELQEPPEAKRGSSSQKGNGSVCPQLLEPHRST

h-P2X4R [3] = biological target: T3, h-P2X4R (Homo sapiens, UniProt Q99571); test: Ca2+ influx assay; conditions: for inhibition at 50 µM: 1321-N1, read-out: h-P2X4 % inhibition
T3 sequence (Q99571 1-388): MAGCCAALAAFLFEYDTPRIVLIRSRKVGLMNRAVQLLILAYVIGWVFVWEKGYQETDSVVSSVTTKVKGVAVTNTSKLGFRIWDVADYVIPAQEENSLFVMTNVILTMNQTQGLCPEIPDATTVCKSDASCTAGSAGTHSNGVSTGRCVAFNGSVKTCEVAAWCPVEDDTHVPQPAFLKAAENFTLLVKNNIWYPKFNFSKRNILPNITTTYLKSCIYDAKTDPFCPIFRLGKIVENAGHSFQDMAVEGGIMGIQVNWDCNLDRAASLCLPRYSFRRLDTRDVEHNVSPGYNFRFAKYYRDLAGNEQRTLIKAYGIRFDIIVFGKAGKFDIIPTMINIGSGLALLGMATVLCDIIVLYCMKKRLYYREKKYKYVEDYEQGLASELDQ

h-P2X7R [4] = biological target: T1, h-P2X7R
h-P2X2R [5] = biological target: T2, h-P2X2R; test: Mode of inhibition: ATP dose-response curve without and with inhibitor, h-P2X2R; conditions: h-P2X2
h-P2X4R [6] = biological target: T3, h-P2X4R; test: Mode of inhibition: ATP dose-response curve without and with inhibitor, h-P2X4R; conditions: h-P2X4R

| IC50 (h-P2X7R [1]) | IC50 (h-P2X2R [2]) | IC50 (h-P2X5 receptor) | inhibition at 50 µM (h-P2X5 receptor) | IC50 (h-P2X4R [3]) | EC50 (h-P2X7R [4]; read-out: EC50 of BzATP-induced response, BzATP without inhibitor) | inhibition at 50 µM (h-P2X2R [2]) | activity against h-P2X2 receptor (in words) (h-P2X2R [2]) | inhibition at 50 µM (h-P2X4R [3]) | mechanism of receptor inhibition (h-P2X7R [4]) | mechanism of receptor inhibition (h-P2X2R [5]) | inhibition at 50 µM (h-P2X7R [1]) | activity against h-P2X4 receptor (in words) (h-P2X4R [3]; SAR statement) | mechanism of receptor inhibition (h-P2X4R [6]) | IC50 (h-P2X5 receptor; read-out: h-P2X5 IC50 ± SEM, Ca2+ influx, ATP at EC80, n = 3) | Molecule | cytotoxicity at 24 h, 50 µM (Cytotoxicity assay) |
| --- | --- | --- | --- | --- | --- | --- | --- | --- | --- | --- | --- | --- | --- | --- | --- | --- |
| 4.53 ± 0.11 µM | 2.03 ± 0.04 µM | > 50 µM | 46% | 3.21 ± 0.01 µM |  |  |  |  |  |  |  |  |  |  | CC(=NNC(=O)c1ccccc1NS(C)(=O)=O)c1ccc(C)s1 [7d, N-(2-(2-(1-(5-Methylthiophen-2-yl)ethylidene)hydrazinecarbonyl)phenyl)methanesulfonamide] | 1.57 ± 0.11% |
|  |  |  |  |  | 5.5 µM |  |  |  |  |  |  |  |  |  | 2′/3′-O-(4-benzoylbenzoyl)adenosine-5′-triphosphate [BzATP, reference compound] |  |
| 5.54 ± 0.05 µM | > 50 µM | > 50 µM | 0% | > 50 µM |  | 0% | loss of activity | 24% |  |  |  |  |  |  | CC(=NNC(=O)c1ccccc1NS(C)(=O)=O)c1cccc(Br)c1 [6c, N-(2-(2-(1-(3-Bromophenyl)ethylidene)hydrazinecarbonyl)phenyl)methanesulfonamide] | 15.1 ± 0.44% |
|  | 1.91 ± 0.03 µM | > 50 µM | 16% | > 50 µM |  |  |  | 40% |  |  |  |  |  |  | CC(=NNC(=O)c1ccccc1NS(C)(=O)=O)c1ccccc1F [6b, N-(2-(2-(1-(2-Fluorophenyl)ethylidene)hydrazinecarbonyl)phenyl)methanesulfonamide] | 11.4 ± 0.57% |
| 4.21 ± 0.01 µM | > 50 µM | > 50 µM | 20% | > 50 µM |  | 20% |  | 46% |  |  |  |  |  |  | CC(=NNC(=O)c1ccccc1NS(C)(=O)=O)c1ccccc1 [6a, N-(2-(2-(1-Phenylethylidene)hydrazinecarbonyl)phenyl)methanesulfonamide] | 14 ± 0.21% |
| 1.1 ± 0.21 µM | 0.32 ± 0.01 µM | > 50 µM | 10% | > 50 µM |  |  |  | 34% | negative allosteric modulator | negative allosteric modulator |  |  |  |  | CC(=NNC(=O)c1ccccc1NS(C)(=O)=O)c1ccc(N)cc1 [6h, N-(2-(2-(1-(4-Aminophenyl)ethylidene)hydrazinecarbonyl)phenyl)methanesulfonamide] | 18.5 ± 1.22% |
| > 50 µM | > 50 µM | > 50 µM | 42% | > 50 µM |  | 15% | loss of activity | 18% |  |  | 48% |  |  |  | CC(=NNC(=O)c1ccccc1NS(C)(=O)=O)c1ccc(Cl)cc1 [6d, N-(2-(2-(1-(4-Chlorophenyl)ethylidene)hydrazinecarbonyl)phenyl)methanesulfonamide] | 6.96 ± 0.8% |
| 2.79 ± 0.22 µM | 0.89 ± 0.41 µM |  |  |  |  |  |  |  |  |  |  |  |  |  | Nc1c(S(=O)(=O)O)cc(Nc2ccc(Nc3nc(Cl)nc(Nc4cccc(S(=O)(=O)O)c4)n3)c(S(=O)(=O)O)c2)c2c1C(=O)c1ccccc1C2=O [RB-2, Reactive Blue 2, reference compound] |  |
| > 50 µM | 1.57 ± 0.01 µM | > 50 µM | 29% | > 50 µM |  |  |  | 24% |  |  | 45% | inactive |  |  | CC(=NNC(=O)c1ccccc1NS(C)(=O)=O)c1cccs1 [7a, N-(2-(2-(1-(Thiophen-2-yl)ethylidene)hydrazinecarbonyl)phenyl)methanesulfonamide] | 11.6 ± 0.89% |
| 8.94 ± 0.01 µM | 1.59 ± 0.01 µM | > 50 µM | 31% | 3.89 ± 0.05 µM |  |  |  |  |  |  |  |  |  |  | CC(=NNC(=O)c1ccccc1NS(C)(=O)=O)c1cc(C)cs1 [7c, N-(2-(2-(1-(4-Methylthiophen-2-yl)ethylidene)hydrazinecarbonyl)phenyl)methanesulfonamide] | 5.98 ± 0.09% |
| 1.7 ± 0.09 µM | 2.17 ± 0.02 µM | > 50 µM | 27% | 1.61 ± 0.04 µM |  |  |  |  |  |  |  |  | negative allosteric modulator |  | CC(=NNC(=O)c1ccccc1NS(C)(=O)=O)c1sccc1Cl [7e, N-(2-(2-(1-(3-Chlorothiophen-2-yl)ethylidene)hydrazinecarbonyl)phenyl)methanesulfonamide] | 8.33 ± 0.8% |
| > 50 µM | 3.22 ± 0.05 µM | > 50 µM | 10% | > 50 µM |  |  |  | 0% |  |  | 34% |  |  |  | CC(=NNC(=O)c1ccccc1NS(C)(=O)=O)c1ccc(Br)cc1 [6e, N-(2-(2-(1-(4-Bromophenyl)ethylidene)hydrazinecarbonyl)phenyl)methanesulfonamide] | 16.8 ± 1.1% |
|  |  |  |  |  |  |  |  |  |  |  |  |  |  | 16.1 ± 0.5 µM | Cc1ccc(C(=O)Nc2ccc(S(=O)(=O)O)c3cc(S(=O)(=O)O)cc(S(=O)(=O)O)c23)cc1NC(=O)c1cccc(NC(=O)Nc2cccc(C(=O)Nc3cc(C(=O)Nc4ccc(S(=O)(=O)O)c5cc(S(=O)(=O)O)cc(S(=O)(=O)O)c45)ccc3C)c2)c1 [Suramin, reference compound] |  |
| > 50 µM | 1.8 ± 0.02 µM | > 50 µM | 12% | > 50 µM |  |  |  | 8% |  |  | 47% |  |  |  | CC(=NNC(=O)c1ccccc1NS(C)(=O)=O)c1sccc1C [7b, N-(2-(2-(1-(3-Methylthiophen-2-yl)ethylidene)hydrazinecarbonyl)phenyl)methanesulfonamide] | 10.7 ± 0.54% |
| 1.16 ± 0.03 µM | > 50 µM | > 50 µM | 0% | 4.03 ± 0.07 µM |  | 37% |  |  |  |  |  |  |  |  | CC(=NNC(=O)c1ccccc1NS(C)(=O)=O)c1ccc(Cl)s1 [7f, N-(2-(2-(1-(5-Chlorothiophen-2-yl)ethylidene)hydrazinecarbonyl)phenyl)methanesulfonamide] | 11.6 ± 0.26% |
| 6.8 ± 0.21 µM | > 50 µM | > 50 µM | 19% | 2.44 ± 0.1 µM |  | 26% |  |  |  |  |  |  |  |  | CC(=NNC(=O)c1ccccc1NS(C)(=O)=O)c1ccc([N+](=O)[O-])s1 [7g, N-(2-(2-(1-(5-Nitrothiophen-2-yl)ethylidene)hydrazinecarbonyl)phenyl)methanesulfonamide] | 23.8 ± 2.15% |
| 10.01 ± 0.07 µM | 3.52 ± 0.07 µM | > 50 µM | 21% | > 50 µM |  |  |  | 32% |  |  |  |  |  |  | CC(=NNC(=O)c1ccccc1NS(C)(=O)=O)c1ccc(I)cc1 [6f, N-(2-(2-(1-(4-Iodophenyl)ethylidene)hydrazinecarbonyl)phenyl)methanesulfonamide] | 8.31 ± 0.33% |
| 2.09 ± 0.13 µM | 3.48 ± 0.04 µM | > 50 µM | 26% | > 50 µM |  |  |  | 45% |  |  |  |  |  |  | COc1ccc(C(C)=NNC(=O)c2ccccc2NS(C)(=O)=O)cc1 [6g, N-(2-(2-(1-(4-Methoxyphenyl)ethylidene)hydrazinecarbonyl)phenyl)methanesulfonamide] | 5.29 ± 0.72% |
